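Each compound was tested at five concentrations against cells in 96-well plates for 48 hours. GI50 = concentration required for 50% inhibition of growth. At the TGI there is no net growth.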
Columns and labels:
Assay in all cases: NCI tumour cell line growth inhibition, 48 h
KM12 colon = tested on: KM12 colon
M19-MEL melanoma = tested on: M19-MEL melanoma
CCRF-CEM leukemia = tested on: CCRF-CEM leukemia
MOLT-4 leukemia = tested on: MOLT-4 leukemia
HOP-92 NSCLC = tested on: HOP-92 NSCLC
KM20L2 colon = tested on: KM20L2 colon
SW-620 colon = tested on: SW-620 colon
A549 NSCLC = tested on: A549 NSCLC
HT29 colon = tested on: HT29 colon
SNB-19 CNS = tested on: SNB-19 CNS
LXFL 529 NSCLC = tested on: LXFL 529 NSCLC
COLO 205 colon = tested on: COLO 205 colon
ACHN renal = tested on: ACHN renal
SNB-78 CNS = tested on: SNB-78 CNS
HCC-2998 colon = tested on: HCC-2998 colon
LOX IMVI melanoma = tested on: LOX IMVI melanoma
HCT-15 colon = tested on: HCT-15 colon
M14 melanoma = tested on: M14 melanoma
SK-MEL-28 melanoma = tested on: SK-MEL-28 melanoma
NCI-H522 lung = tested on: NCI-H522 lung
OVCAR-3 ovarian = tested on: OVCAR-3 ovarian
HOP-18 NSCLC = tested on: HOP-18 NSCLC
DLD-1 colon = tested on: DLD-1 colon
K-562 leukemia = tested on: K-562 leukemia
U251 CNS = tested on: U251 CNS
NCI-H23 lung = tested on: NCI-H23 lung
DMS 114 small cell lung = tested on: DMS 114 small cell lung
SF-539 CNS = tested on: SF-539 CNS
SF-295 CNS = tested on: SF-295 CNS
A498 renal = tested on: A498 renal
RPMI-8226 leukemia = tested on: RPMI-8226 leukemia
OVCAR-4 ovarian = tested on: OVCAR-4 ovarian
NCI-H226 lung = tested on: NCI-H226 lung
UO-31 renal = tested on: UO-31 renal
NCI-H460 lung = tested on: NCI-H460 lung
HCT-116 colon = tested on: HCT-116 colon
UACC-62 melanoma = tested on: UACC-62 melanoma
OVCAR-5 ovarian = tested on: OVCAR-5 ovarian
CAKI-1 renal = tested on: CAKI-1 renal
786-0 renal = tested on: 786-0 renal
MALME-3M melanoma = tested on: MALME-3M melanoma
OVCAR-8 ovarian = tested on: OVCAR-8 ovarian
HOP-62 NSCLC = tested on: HOP-62 NSCLC
EKVX NSCLC = tested on: EKVX NSCLC
SNB-75 CNS = tested on: SNB-75 CNS
UACC-257 melanoma = tested on: UACC-257 melanoma
TK-10 renal = tested on: TK-10 renal
IGROV1 ovarian = tested on: IGROV1 ovarian
HL-60(TB) leukemia = tested on: HL-60(TB) leukemia
DMS 273 small cell lung = tested on: DMS 273 small cell lung
SK-MEL-5 melanoma = tested on: SK-MEL-5 melanoma
XF 498 CNS = tested on: XF 498 CNS
SK-OV-3 ovarian = tested on: SK-OV-3 ovarian
SK-MEL-2 melanoma = tested on: SK-MEL-2 melanoma
SR leukemia = tested on: SR leukemia
SN12C renal = tested on: SN12C renal
SF-268 CNS = tested on: SF-268 CNS
RXF 393 renal = tested on: RXF 393 renal

`COc1cc2c(c(OC)c1OC)-c1ccc(SC)c(=O)cc1[C@@H](NCc1ccccc1[N+](=O)[O-])CC2` was tested, and the TGI (KM12 colon) was 0.117 µM, the TGI (M19-MEL melanoma) was > 100 µM and the TGI (CCRF-CEM leukemia) was 38.5 µM. For the same molecule, the TGI (MOLT-4 leukemia) was > 100 µM, the TGI (HOP-92 NSCLC) was > 100 µM and the TGI (KM20L2 colon) was 0.0112 µM. For the same molecule, the TGI (SW-620 colon) was > 100 µM, the TGI (A549 NSCLC) was > 100 µM and the TGI (HT29 colon) was 0.0146 µM. For the same molecule, the TGI (SNB-19 CNS) was > 100 µM, the TGI (LXFL 529 NSCLC) was 15.8 µM and the TGI (COLO 205 colon) was 0.0556 µM. The TGI (ACHN renal) was > 100 µM, the TGI (SNB-78 CNS) was 40.6 µM and the TGI (HCC-2998 colon) was 0.0407 µM. It also gave a TGI (LOX IMVI melanoma) of 19 µM, a TGI (HCT-15 colon) of 0.0487 µM and a TGI (M14 melanoma) of 0.21 µM. The TGI (SK-MEL-28 melanoma) was > 100 µM, the TGI (NCI-H522 lung) was 0.0298 µM and the TGI (OVCAR-3 ovarian) was 0.0293 µM. For the same molecule, the GI50 (HOP-18 NSCLC) was > 100 µM, the TGI (HOP-18 NSCLC) was > 100 µM and the TGI (DLD-1 colon) was > 100 µM. The GI50 (K-562 leukemia) was 0.171 µM, the TGI (K-562 leukemia) was > 100 µM and the TGI (U251 CNS) was 0.0419 µM. It also gave a TGI (NCI-H23 lung) of 0.0237 µM, a TGI (DMS 114 small cell lung) of 0.0243 µM and a TGI (SF-539 CNS) of 0.0199 µM. The TGI (SF-295 CNS) was > 100 µM, the TGI (A498 renal) was 0.0283 µM and the TGI (RPMI-8226 leukemia) was 23.1 µM. The TGI (OVCAR-4 ovarian) was > 100 µM, the TGI (NCI-H226 lung) was 0.0558 µM and the TGI (UO-31 renal) was > 100 µM. For the same molecule, the TGI (NCI-H460 lung) was 0.0826 µM, the TGI (HCT-116 colon) was 0.0278 µM and the TGI (UACC-62 melanoma) was 18.2 µM. For the same molecule, the GI50 (OVCAR-5 ovarian) was > 100 µM, the TGI (OVCAR-5 ovarian) was > 100 µM and the TGI (CAKI-1 renal) was > 100 µM. The TGI (786-0 renal) was 41.5 µM, the TGI (MALME-3M melanoma) was > 100 µM and the TGI (OVCAR-8 ovarian) was 0.0499 µM. For the same molecule, the TGI (HOP-62 NSCLC) was > 100 µM, the TGI (EKVX NSCLC) was > 100 µM and the GI50 (SNB-75 CNS) was 1.53 µM. For the same molecule, the TGI (UACC-257 melanoma) was 47.2 µM and the TGI (TK-10 renal) was > 100 µM.
For `O=c1[nH]cnc2c1sc(=S)n2-c1ccccc1`, the TGI (KM12 colon) was > 100 µM, the TGI (M19-MEL melanoma) was > 100 µM and the TGI (CCRF-CEM leukemia) was > 100 µM. For the same molecule, the TGI (IGROV1 ovarian) was > 100 µM, the TGI (MOLT-4 leukemia) was > 100 µM and the TGI (HOP-92 NSCLC) was > 100 µM. For the same molecule, the TGI (KM20L2 colon) was > 100 µM, the TGI (SW-620 colon) was > 100 µM and the TGI (A549 NSCLC) was > 100 µM. The TGI (HT29 colon) was > 100 µM, the TGI (SNB-19 CNS) was > 100 µM and the TGI (LXFL 529 NSCLC) was > 100 µM. For the same molecule, the TGI (COLO 205 colon) was > 100 µM, the TGI (ACHN renal) was > 100 µM and the TGI (SNB-78 CNS) was > 100 µM. The TGI (HL-60(TB) leukemia) was > 100 µM, the TGI (HCC-2998 colon) was > 100 µM and the TGI (LOX IMVI melanoma) was > 100 µM. For the same molecule, the TGI (HCT-15 colon) was > 100 µM, the TGI (M14 melanoma) was > 100 µM and the TGI (SK-MEL-28 melanoma) was > 100 µM. For the same molecule, the TGI (NCI-H522 lung) was > 100 µM, the TGI (OVCAR-3 ovarian) was > 100 µM and the TGI (DLD-1 colon) was > 100 µM. The TGI (K-562 leukemia) was > 100 µM, the TGI (U251 CNS) was > 100 µM and the TGI (NCI-H23 lung) was > 100 µM. For the same molecule, the TGI (DMS 273 small cell lung) was > 100 µM, the TGI (SK-MEL-5 melanoma) was > 100 µM and the TGI (DMS 114 small cell lung) was > 100 µM. The TGI (SF-539 CNS) was > 100 µM, the TGI (SF-295 CNS) was > 100 µM and the TGI (A498 renal) was > 100 µM. The TGI (XF 498 CNS) was > 100 µM, the TGI (OVCAR-4 ovarian) was > 100 µM and the TGI (NCI-H226 lung) was > 100 µM. For the same molecule, the TGI (UO-31 renal) was > 100 µM, the TGI (SK-OV-3 ovarian) was > 100 µM and the TGI (NCI-H460 lung) was > 100 µM. The TGI (HCT-116 colon) was > 100 µM, the TGI (UACC-62 melanoma) was > 100 µM and the TGI (SK-MEL-2 melanoma) was > 100 µM. The TGI (SR leukemia) was > 100 µM, the TGI (OVCAR-5 ovarian) was > 100 µM and the TGI (CAKI-1 renal) was > 100 µM. The TGI (786-0 renal) was > 100 µM, the TGI (SN12C renal) was > 100 µM and the TGI (MALME-3M melanoma) was > 100 µM. The TGI (OVCAR-8 ovarian) was > 100 µM, the TGI (HOP-62 NSCLC) was > 100 µM and the TGI (EKVX NSCLC) was > 100 µM. For the same molecule, the TGI (SNB-75 CNS) was > 100 µM, the TGI (UACC-257 melanoma) was > 100 µM and the TGI (TK-10 renal) was > 100 µM. The TGI (SF-268 CNS) was > 100 µM.
With `Clc1ccc(-c2nnc3c4nnc(-c5ccc(Cl)cc5Cl)n4c4ccccc4n23)c(Cl)c1` the TGI (KM12 colon) was > 100 µM, the TGI (M19-MEL melanoma) was > 100 µM and the TGI (CCRF-CEM leukemia) was > 100 µM. The TGI (IGROV1 ovarian) was > 100 µM, the TGI (MOLT-4 leukemia) was > 100 µM and the TGI (HOP-92 NSCLC) was > 100 µM. For the same molecule, the TGI (KM20L2 colon) was > 100 µM, the TGI (SW-620 colon) was > 100 µM and the TGI (A549 NSCLC) was > 100 µM. For the same molecule, the TGI (HT29 colon) was > 100 µM, the TGI (SNB-19 CNS) was > 100 µM and the TGI (LXFL 529 NSCLC) was > 100 µM. The TGI (COLO 205 colon) was > 100 µM, the TGI (ACHN renal) was > 100 µM and the TGI (SNB-78 CNS) was > 100 µM. For the same molecule, the TGI (HCC-2998 colon) was > 100 µM, the TGI (LOX IMVI melanoma) was > 100 µM and the TGI (HCT-15 colon) was > 100 µM. For the same molecule, the TGI (M14 melanoma) was > 100 µM, the TGI (SK-MEL-28 melanoma) was > 100 µM and the TGI (NCI-H522 lung) was > 100 µM. The TGI (OVCAR-3 ovarian) was > 100 µM, the TGI (DLD-1 colon) was > 100 µM and the TGI (K-562 leukemia) was > 100 µM. For the same molecule, the TGI (U251 CNS) was > 100 µM, the TGI (NCI-H23 lung) was > 100 µM and the TGI (DMS 273 small cell lung) was > 100 µM. For the same molecule, the TGI (SK-MEL-5 melanoma) was > 100 µM, the TGI (DMS 114 small cell lung) was > 100 µM and the TGI (SF-539 CNS) was > 100 µM. The TGI (SF-295 CNS) was > 100 µM, the TGI (A498 renal) was > 100 µM and the TGI (XF 498 CNS) was > 100 µM. For the same molecule, the TGI (RPMI-8226 leukemia) was > 100 µM, the TGI (OVCAR-4 ovarian) was > 100 µM and the TGI (UO-31 renal) was > 100 µM. For the same molecule, the TGI (SK-OV-3 ovarian) was > 100 µM, the TGI (NCI-H460 lung) was > 100 µM and the TGI (RXF 393 renal) was > 100 µM. For the same molecule, the TGI (HCT-116 colon) was > 100 µM, the TGI (UACC-62 melanoma) was > 100 µM and the TGI (SK-MEL-2 melanoma) was > 100 µM. The TGI (OVCAR-5 ovarian) was > 100 µM, the TGI (CAKI-1 renal) was > 100 µM and the TGI (786-0 renal) was > 100 µM. For the same molecule, the TGI (SN12C renal) was > 100 µM, the TGI (MALME-3M melanoma) was > 100 µM and the TGI (OVCAR-8 ovarian) was > 100 µM. For the same molecule, the TGI (HOP-62 NSCLC) was > 100 µM, the TGI (EKVX NSCLC) was > 100 µM and the TGI (SNB-75 CNS) was 63.2 µM. The TGI (UACC-257 melanoma) was > 100 µM, the TGI (TK-10 renal) was > 100 µM and the TGI (SF-268 CNS) was > 100 µM.

Reference: PubChem BioAssay (NCI)
